Experimental data from patent US12616689B2, “Regimens of tafenoquine for prevention of malaria in malaria-naive subjects” (60 Degrees Pharmaceuticals, Inc., priority 2014, dated 2026).

Legend:
[1] = Population PK analysis (NONMEM one-compartment model) of plasma tafenoquine concentrations pooled from ten Phase I/II/III clinical studies, with bootstrap evaluation; format: in vivo, human; set-up: key to ωCL^2, variance of inter-individual random effect on CL, final NONMEM estimate / ωV^2, variance of inter-individual random effect on V, final NONMEM estimate / ωKa^2, variance of inter-individual random effect on Ka, final NONMEM estimate / ωCL^2, Bootstrap Estimate / ωV^2, Bootstrap Estimate / ωKa^2, Bootstrap Estimate: variance of ηi, where Pi = P·exp(ηi)
Description: Pharmacokinetic (PK) data from several studies (Phase I/II/III) was modeled to establish a consolidated model of tafenoquine and to determine relevant covariates. More specifically, analysis was performed using data obtained from ten Phase I/II/III clinical studies of tafenoquine (U.S. Army Study Numbers: 1, 2, 3, 4, 5, 14, 15, 33, 44 and 58). Table 2 summarizes the key features of each of the studies included in the pooled dataset such as the study type and design, dose and dosing regimen, population, and sample collection schemes. A total of 866 subjects were included in the population analysis. Ninety-three percent of the subjects were male.
The tafenoquine concentrations of plasma samples across the ten studies were analyzed using a validated high-performance liquid chromatography-mass spectrometry method (HPLC-MS) or HPLC with fluorescence detection as previously described (see, Kocisko D A, Walsh D S, Eamsila C, Edstein M D. Measurement of tafenoquine (WR 238605) in human plasma, and venous and capillary blood by high-pressure liquid chromatography. Ther Drug Monit. 2000; 22:184-189; Charles B G, Miller A K, Nasveld P E, Reid M G, Harris I E, Edstein M D. Population pharmacokinetics of tafenoquine during malaria prophylaxis in healthy subjects. Antimicrob Agents Chemother. 2007; 51:2709-2715.
Population PK analyses were carried out using NONMEM version 7.1.2, PDx-Pop version 4.2 (Icon Development Solutions, Hanover, MD) and Intel Visual Fortran Compiler version 12 on a Microsoft Windows XP platform. Plasma tafenoquine concentrations, demographic information and clinical laboratory results from ten studies were used to build a pooled NONMEM input data file for the current population PK analysis. The data were prepared for analysis using SAS software version 9.1.3 (SAS Institute Inc., Cary, NC). Actual dosing and actual blood sampling times, when available, were used for the analysis. Plasma tafenoquine concentrations that were below or equal to the limit of quantification were excluded from the analysis.
Based on the PK profile of tafenoquine from previous modeling efforts (Shanks G D, Oloo A J, Aleman G M, et al. A new primaquine analogue, tafenoquine (WR 238605), for prophylaxis against Plasmodium falciparum malaria. Clin Infect Dis. 2001; 33:1968-1974; Obaldia N 3rd, Rossan R N, Cooper R D, et al. WR 238605, chloroquine, and their combinations as blood schizonticides against a chloroquine-resistant strain of Plasmodium vivax in Aotus monkeys. Am J Trop Med Hyg. 1997; 56:508-10), a one-compartment PK model with first-order absorption and elimination processes was selected to describe best the pharmacokinetics of tafenoquine. As part of the modeling process, a two-compartment PK model with first-order absorption and elimination process was also explored and discarded. The one-compartment PK model was specified in the NONMEM control file and was parameterized in terms of apparent clearance (CL/F), apparent volume of distribution (V/F) and absorption rate constant (Ka) using the PREDPP ADVAN2 with TRANS2 subroutine in NONMEM. First-order conditional estimation (FOCE) with interaction between variance of inter-individual variability and the variance of residual error was used as the estimation method. Inter-individual variability was best described by an exponential error model, as shown below: Pi=Pexp(ηi) • where: • Pi is the estimated parameter for the i^th individual. • P is the population value for the parameter. • ηi are inter-individual random effects for the i^th individual for parameter P and were assumed to be independent and symmetrically distributed with a zero mean and a variance ω^2.
Different structural models (additive, proportional, exponential and combined additive and proportional) were investigated for residual unexplained variability (RUV). RUV was best described by a proportional error model, as shown below: […]

malaria = details: cited from earlier work
P. berghei = details: cited from earlier work
[2] = tested on: chloroquine sensitive and resistant P. vivax; details: Aotus monkeys; cited from earlier work
[3] = tested on: Plasmodium falciparum malaria; details: regimens of 50, 100, 200 and 400 mg; cited from earlier work
[4] = cited from earlier work
[5] = in vivo; cited from earlier work
[6] = tested on: blood stages of P. falciparum; details: cited from earlier work
[7] = final PK model, coefficient of variation

COc1cc(C)c2c(Oc3cccc(C(F)(F)F)c3)c(OC)cc(NC(C)CCCN)c2n1 (stereo not drawn) [tafenoquine, -[2,6-Dimethoxy-4-methyl-5-[3-(trifluoromethyl)phenoxy]quinolin-8-yl]pentane-1,4-diamine]
COVCL,V, Bootstrap Estimate ([1]; 1000 bootstrap samples): 0.0250
θCL, Bootstrap Estimate ([1]; 1000 bootstrap samples): 4.15
θCL-AGE, Bootstrap Estimate ([1]; 1000 bootstrap samples): −0.200
θCL-WT, Bootstrap Estimate ([1]; 1000 bootstrap samples): 0.554
θKA, Bootstrap Estimate ([1]; 1000 bootstrap samples): 0.351
θV, Bootstrap Estimate ([1]; 1000 bootstrap samples): 2482
θV-FOOD, Bootstrap Estimate ([1]; 1000 bootstrap samples): 0.810
θV-WT, Bootstrap Estimate ([1]; 1000 bootstrap samples): 0.774
σ^2, Bootstrap Estimate ([1]; 1000 bootstrap samples): 0.0486
ωCL^2, Bootstrap Estimate ([1]; 1000 bootstrap samples): 0.0536
ωKa^2, Bootstrap Estimate ([1]; 1000 bootstrap samples): 0.283
ωV^2, Bootstrap Estimate ([1]; 1000 bootstrap samples): 0.0521
Inter-individual variability associated with CL/F before inclusion of covariates WT and age ([1]; base model, without covariates): 26.5%
Inter-individual variability of V/F before inclusion of covariates WT and meal condition ([1]; base model, without covariates): 29.6%
Vd/F ([1]; both sexes, human, plasma, oral, final PK model, WT 75 kg, fasted, read-out: θV, population apparent volume of distribution (V/F), final NONMEM estimate): 2470 L
COVCL,V, covariance, final NONMEM estimate ([1]; final PK model): 0.0289
θV-WT, exponent of weight effect on V/F, final NONMEM estimate ([1]; final PK model): 0.781
σ^2, variance of the proportional residual random effect, final NONMEM estimate ([1]; final PK model): 0.0488
ωCL^2, variance of inter-individual random effect on CL, final NONMEM estimate ([1]; final PK model): 0.0555
ωKa^2, variance of inter-individual random effect on Ka, final NONMEM estimate ([1]; final PK model): 0.293
ωV^2, variance of inter-individual random effect on V, final NONMEM estimate ([1]; final PK model): 0.0583
θV-FOOD, food effect on V/F, final NONMEM estimate ([1]; final PK model, FOOD = 0 fasted, 1 fed): 0.822
Inter-individual variability of CL/F [1, 7]: 23.6%
Inter-individual variability of Ka [1, 7]: 54.1%
Inter-individual variability of V/F [1, 7]: 24.1%
Ka, first-order absorption rate constant, final NONMEM estimate ([1]; oral, final PK model): 0.359 h⁻¹
θCL, population apparent clearance (CL/F), final NONMEM estimate ([1]; oral, final PK model, WT 75 kg, age 25 y): 4.17 L/h
Protective efficacy (malaria; 200 mg daily for three days, then 200 mg weekly, 95% CI 93%-100%): 100%
Malaria breakthroughs (malaria; reference regimen, non-immune, primarily Caucasian Australian soldiers): no malaria breakthroughs were observed
Activity against P. berghei in mice in vivo (P. berghei): active
Cure of chloroquine sensitive and resistant P. vivax infections [2]: cured
Reduction in microscopically confirmed parasitemia [3]: statistically significant reductions
Incidence of gastrointestinal adverse events relative to 400 mg once daily or BID for three days (total dose 1200 mg) ([4]; 200 mg once daily for three days (total dose 600 mg)): approximately half
Threshold dose considered safe in G6PD-deficient individuals ([4]; G6PD-deficient individuals): 300 mg
Safety and tolerability of a loading dose of 400 mg once daily for three days ([4]; G6PD-normal individuals): safe in G6PD-normal individuals in several clinical studies but exhibits gastrointestinal intolerability
Tolerability of a 400 mg dose ([4]; human, in vivo): less well tolerated
Half-life [5]: weeks
Activity against blood stages of P. falciparum in vitro [6]: active

COc1cc(NC(C)CCCN)c2ncccc2c1 (stereo not drawn) [primaquine]
Half-life [5]: hours
